{"source": "the supplement of paper PMC10307832", "experiment_in_all_cases": "relative viability (nuclei count vs DMSO), 5 days (fraction); higher = more cells survive", "key": {"TGX 221 + Crizotinib": {"compound": "CC1=CN2C(=O)C=C(N=C2C(=C1)C(C)NC3=CC=CC=C3)N4CCOCC4 [TGX 221] + C[C@@H](Oc1cc(-c2cnn(C3CCNCC3)c2)cnc1N)c1c(Cl)ccc(F)c1Cl [Crizotinib] (partner 1 µM)", "outline": "(§1)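 Five library-drug doses in √10 steps were combined with a fixed anchor-drug dose, or a single drug was given alone, by pin tool to lung cancer cell lines in 1536-well plates the day after seeding. Nuclei were stained and counted after 5 days. Relative viability is the nuclei count in treated wells over that in vehicle wells, taken as the median of duplicate plates.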"}, "TGX 221 + Linsitinib": {"compound": "CC1=CN2C(=O)C=C(N=C2C(=C1)C(C)NC3=CC=CC=C3)N4CCOCC4 [TGX 221] + C[C@]1(O)C[C@@H](c2nc(-c3ccc4ccc(-c5ccccc5)nc4c3)c3c(N)nccn32)C1 [Linsitinib] (partner 1 µM)", "outline": "as §1"}, "[1]": {"compound": "O=C(CCCCCCNC(=O)c1cnc(N(c2ccccc2)c2ccccc2)nc1)NO [Ricolinostat] + CC(=O)Nc1cccc(-n2c(=O)n(C3CC3)c(=O)c3c(Nc4ccc(I)cc4F)n(C)c(=O)c(C)c32)c1 [Trametinib] (partner 0.02 µM)", "outline": "as §1"}, "Ricolinostat + AZD7762": {"compound": "O=C(CCCCCCNC(=O)c1cnc(N(c2ccccc2)c2ccccc2)nc1)NO [Ricolinostat] + NC(=O)Nc1cc(-c2cccc(F)c2)sc1C(=O)N[C@H]1CCCNC1 [AZD7762] (partner 0.2 µM)", "outline": "as §1"}}, "data": [{"cell line": "NCI-H1792", "values": [{"measurement": "relative viability", "setting": "TGX 221 + Crizotinib; first compound 0.08 µM", "result": 0.883}, {"measurement": "relative viability", "setting": "TGX 221 + Crizotinib; first compound 0.253 µM", "result": 1.08}, {"measurement": "relative viability", "setting": "TGX 221 + Crizotinib; first compound 0.8 µM", "result": 0.944}, {"measurement": "relative viability", "setting": "TGX 221 + Crizotinib; first compound 2.53 µM", "result": 0.948}, {"measurement": "relative viability", "setting": "TGX 221 + Crizotinib; first compound 8 µM", "result": 0.857}, {"measurement": "relative viability", "setting": "TGX 221 + Linsitinib; first compound 0.08 µM", "result": 0.501}, {"measurement": "relative viability", "setting": "TGX 221 + Linsitinib; first compound 0.253 µM", "result": 0.553}, {"measurement": "relative viability", "setting": "TGX 221 + Linsitinib; first compound 0.8 µM", "result": 0.361}, {"measurement": "relative viability", "setting": "TGX 221 + Linsitinib; first compound 2.53 µM", "result": 0.435}, {"measurement": "relative viability", "setting": "TGX 221 + Linsitinib; first compound 8 µM", "result": 0.326}, {"measurement": "relative viability", "setting": "[1]; first compound 0.253 µM", "result": 0.486}, {"measurement": "relative viability", "setting": "[1]; first compound 0.8 µM", "result": 0.418}, {"measurement": "relative viability", "setting": "[1]; first compound 2.53 µM", "result": 0.468}, {"measurement": "relative viability", "setting": "Ricolinostat + AZD7762; first compound 0.253 µM", "result": 0.716}, {"measurement": "relative viability", "setting": "Ricolinostat + AZD7762; first compound 0.8 µM", "result": 0.581}, {"measurement": "relative viability", "setting": "Ricolinostat + AZD7762; first compound 2.53 µM", "result": 0.375}]}]}
